Test results from patent publication US5508288A, “Indole derivatives as 5HT1C antagonists” (SmithKline Beecham, p.l.c., priority 1992, dated 1996).

Tests used:
[1] = molecular target: T1, 5-HT1C receptors (Rattus norvegicus, UniProt P08909); experiment: Reversal of mCPP-induced hypolocomotion; format: in vivo; conditions: po, p.o. 1 h pretest, mCPP 7 mg/kg i.p., male Sprague Dawley rats, read-out: ID50 (the source's name)
T1 construct: tissue Charles River; host or cells: whole animal, male Sprague Dawley rats (central receptors, in vivo)
T1 sequence (P08909 33-460): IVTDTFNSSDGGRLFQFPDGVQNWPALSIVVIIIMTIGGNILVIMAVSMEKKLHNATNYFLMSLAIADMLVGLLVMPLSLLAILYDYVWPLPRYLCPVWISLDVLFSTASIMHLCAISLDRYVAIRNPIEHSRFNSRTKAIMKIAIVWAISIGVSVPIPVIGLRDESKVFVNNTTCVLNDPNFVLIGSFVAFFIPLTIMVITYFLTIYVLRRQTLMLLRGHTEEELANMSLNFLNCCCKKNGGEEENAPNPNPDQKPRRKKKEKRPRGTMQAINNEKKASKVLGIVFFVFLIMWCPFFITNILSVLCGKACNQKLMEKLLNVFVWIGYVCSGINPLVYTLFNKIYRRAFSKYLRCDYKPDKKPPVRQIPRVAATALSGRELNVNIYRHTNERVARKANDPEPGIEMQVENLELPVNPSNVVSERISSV
Description: This effect was blocked by the non specific 5-HT1C /5-HT2 receptor antagonists mianserin, cyproheptadine and metergoline and perhaps by mesulergine. It was not blocked by the 5-HT2 receptor antagonists ketanserin and ritanserin at relevant doses (Kennett and Curzon 1991) nor by antagonists of 5-HT1A, 5-HT1B, 5-HT3, α2 adrenoceptors or dompamine D2 receptors. The effect of mCPP is therefore considered to be mediated by 5-HT1C receptors (Kennett and Curzon 1988) as confirmed by subsequent studies (Lucki et al., 1989). Since mCPP causes hypolocomotion when infused into the cerebral ventricles this effect is probably centrally mediated (Kennett and Curzon 1988).
mCPP-induced hypolocomotion was measured in automated locomotion cages of dimensions 56 cm long×161/2× cm wide×25 cm high and made of black perspex. Two photobeams traversed the width of the cages at either end at ground level. Sequential breaking of these beams allowed the measurement of cage transits.
Male Sprague Dawley rats (200-250 g) (Charles River) were housed in groups of six. They were given drugs orally 1 h pretest and 40 mins later mCPP (7 mg/kg i.p.). After a further 20 min they were placed in individual automated cages in groups of four under red light in an adjacent room. After 10 min the test was terminated. […]

[2] = molecular target: T2, 5-HT1C -like Receptors (Rattus norvegicus, UniProt P30994); experiment: Rat fundic strip, antagonism of 5-HT; conditions: agonist 5-HT, read-out: pA2 (converted)
T2 construct: tissue Charles River; host or cells: stomach fundus strips of male CD rats
Description: The 5-HT receptor in the rat fundic strip (RFS) has been characterised as `5-HT1C -like` as its pharmacology is similar, but not identical, to that of rat 5-HT1C receptor dones.
Whole stomachs were obtained from male CD Rats (Charles River, 250-350 g). Strips of fundus (2 cm×0.5 cm) were cut from the greater curvature and the mucesae carefully removed. Tissues were then further dissected into smaller strips (2 mm×20 mm) which were mounted in organ baths containing oxygensted Tyrodes solution at 37° C. containing indomethacin (3 μM). Preparations were maintained under a resting tension of 0.5 g and exposed to the irreversible MAO inhibitor pargyline (100 μM for 30 minutes followed by washout). Over a 1 h equilibration period, rat fundic strips were challenged with 1×10^-8 M 5-HT at 15 minute intervals until constant responses were obtained. Fifteen minutes later, a complete cumulative concentration-effect curve to the standard agonist 5-HT (1×10^-10 upwards) was constructed to determine the individual sensitivity of each preparation. A further concentration-effect curve to either 5-HT, or other agonists was constructed no sooner than 1 h after completion of the previous curve. When necessary tissues were equilibrated with the antagonists over this one hour period. Antagonists affinities are expressed as pA2 estimates.

[3] = test system: rat stomach fundus seretonin receptor; conditions: J. Med. Chem. 1986 29 2415-2418; cited from earlier work
[4] = molecular target: T1, 5-HT1C receptors; conditions: rats; literature (Kennett and Curzon); cited from earlier work

T2 sequence (P30994 whole entry): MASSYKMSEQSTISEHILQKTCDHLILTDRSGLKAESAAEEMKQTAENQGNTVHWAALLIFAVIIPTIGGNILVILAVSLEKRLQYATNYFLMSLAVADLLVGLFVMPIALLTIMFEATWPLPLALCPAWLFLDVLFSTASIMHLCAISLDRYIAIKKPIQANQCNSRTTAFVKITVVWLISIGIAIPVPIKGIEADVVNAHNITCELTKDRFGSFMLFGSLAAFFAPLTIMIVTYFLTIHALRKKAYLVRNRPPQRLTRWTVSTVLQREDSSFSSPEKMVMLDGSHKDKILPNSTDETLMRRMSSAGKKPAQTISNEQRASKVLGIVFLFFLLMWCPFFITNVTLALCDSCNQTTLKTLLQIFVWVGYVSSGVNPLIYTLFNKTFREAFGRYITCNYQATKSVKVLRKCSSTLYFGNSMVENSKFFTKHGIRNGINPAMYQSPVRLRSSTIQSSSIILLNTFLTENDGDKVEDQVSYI

Cn1ccc2cc(NC(=O)Nc3cccnn3)ccc21 [Example 2, N-(1-Methyl-5-indolyl)-N'-(3-pyridazinyl) urea]
ED50 [1]: 47 mg/kg

Cn1ccc2cc(NC(=O)Nc3cncnc3)ccc21 [Example 3, N-(1-Methyl-5-indolyl)-N'-(5-pyrimidinyl) urea]
ED50 [1]: 43.7 mg/kg

Cc1cc(NC(=O)Nc2ccc3c(ccn3C)c2)sn1 [Example 5, N-(1-Methyl-5-indolyl)-N'-(3-methyl-5-isothiazolyl) urea]
Kb [2]: 0.0126 µM

CCc1c(C)n(C)c2ccc(NC(=O)Nc3cccc(C(F)(F)F)c3)cc12 [N-(1,2-dimethyl-3-ethyl-1H-indol-5-yl)-N'-(3-trifluoromethylphenyl)urea]
selectivity for the rat stomach fundus serotonin receptor [3]: shows selectivity

CN1CCC(=C2c3ccccc3C=Cc3ccccc32)CC1 [cyproheptadine]
block of mCPP-induced hypolocomotion [4]: blocked

O=C(c1ccc(F)cc1)C1CCN(CCn2c(=O)[nH]c3ccccc3c2=O)CC1 [ketanserin]
block of mCPP-induced hypolocomotion [4]: not blocked

CN1C[C@@H](NS(=O)(=O)N(C)C)C[C@@H]2c3cccc4c3c(cn4C)C[C@H]21 [mesulergine]
block of mCPP-induced hypolocomotion [4]: perhaps

CN1C[C@H](CNC(=O)OCc2ccccc2)C[C@@H]2c3cccc4c3c(cn4C)C[C@H]21 [metergoline]
block of mCPP-induced hypolocomotion [4]: blocked

CN1CCN2c3ccccc3Cc3ccccc3C2C1 (stereo not shown) [mianserin]
block of mCPP-induced hypolocomotion [4]: blocked

Cc1nc2sccn2c(=O)c1CCN1CCC(=C(c2ccc(F)cc2)c2ccc(F)cc2)CC1 [ritanserin]
block of mCPP-induced hypolocomotion [4]: not blocked
